Assay results: patent publication US20250313554A1, “PTPN2 INHIBITORS” (Ness Therapeutics, Inc., priority 2022, published 2025)
Read-outs that look alike come from different tables or passages of the source.

Experiments:
GST-tagged PTPN2 protein = GST-tagged PTPN2 protein (Homo sapiens (Human), UniProt P17706); experiment: Primary assay of PTPN2 enzymatic activity inhibition (DiFMUP fluorescence); type: biochemical; conditions: PTPN2 0.004 ng/μL, DiFUMP substrate 2 μM, 60 min at rt
Method: Compound activity was determined using GST-tagged PTPN2 protein (Cat #31592, ActiveMotif) (SEQ ID NO: 1) in an in vitro enzymatic reaction. The enzymatic reaction was carried out in assay buffer (50 mM HEPES Na salt pH 7.2-7.4, 2 mM EDTA, 100 mM NaCl, 52 ng/μL BSA, and 6 mM DTT). The compounds were dispensed on a 384 well Diamond Well Plate (Axigen, Cat #P-384-120SQ-C-S) using the Biomek FX liquid handling system at 100× solutions of compounds in DMSO. 2×PTPN2 (final concentration 0.004 ng/μL) was prepared in 1× Assay buffer and 25 μL of mixture per well was added into Reaction plate (Optiplate, black, Perkin Elmer, Cat #6007270). Add 25 μL of 1× buffer to Ctrl- (Substrate w/o PTPN2) wells followed by centrifugation at 100 g for 1 min. Next step the Compounds were added to Reaction plate using Biomek station via following steps: 3 μl of 100× compounds (in DMSO) were mixed with 27 μL of Assay Buffer, then 5 μL of this mixture was added to Reaction plate with 25 μL of PTPN2 Mix. Plates were centrifuged for 1 min at 100 g and incubated for another 10 min at rt. Finally, 20 μL of 2.5× Substrate (DiFUMP, Invitrogen™ Cat #D6567) mix was added into appropriate wells of Reaction plate to the final concentration of 2 μM, plate was centrifuged at 100 g for 1 min followed by incubation at rt for 60 min, and the Fluorescence Intensity was measured using a Microplate Reader (ClarioStar Plus, excitation 360 nm, emission 450 nm). The % inhibition was then used to calculate the Ki values. The Ki values are shown in Table A, wherein “A” corresponds to Ki<1.0 nm, “B” corresponds to 1.0 nm≤Ki<5.0 nm, “C” corresponds to 5.0 nm≤Ki<10.0 nm, “D” corresponds to 10.0 nm≤Ki<50.0 nm, and “E” corresponds to 50.0 nm≤Ki<100.0 nm, and “F” corresponds to 100.0 nm≤Ki.

[1] = test system: B16F10 mouse melanoma cells; experiment: Tumor cells B16F10 cellular growth IFNγ-induced inhibition assay (CellTiter-Glo); type: cell-based; conditions: for IC50: B16-F10, 72 h
Method: B16F10 mouse melanoma cells (ATCC Cat #CRL-6475) were seeded at a density of 500 cells per well in a 384-well clear bottom plate (Corning Cat #3712, Corning, N.Y.) in 40 μL total volume of DMEM+10% FBS (PanEco Cat #C420, Russia and Sigma Cat #F4135, St. Louis, MO). Cells were allowed to adhere overnight at 37° C., 5% CO2. On the following day, 250× solutions of compounds in DMSO (Sigma Cat #D2650) were prepared into Cmpnds plate (Diamond Well Plate, Axigen, Cat #P-384-120SQ-C-S) (final concentration of 1×) and DMSO only controls were included. Dilution Plate (Diamond Well Plate (Axigen, Cat #P-384-120SQ-C-S) was prepared by adding 49 μL of culture medium per well: half of the plate with culture medium only, half with culture medium+IFNγ (5 ng/ml). A 1 μL aliquot of 250× compounds (Cmpnds plate) was added to 49 μL of culture medium (Dilution plate), then a 10 μL aliquot of the mixture was transferred to Reaction plate with 40 μL of cells followed by centrifugation at 240 g for 1 min. After 3 days of incubation, 10 μL of CellTiter-Glo (Promega) was added to the cells, plates were centrifuged at 240 g for 1 min, and luminescence signal was measured. For each compound, the percent growth inhibition at every compound dose level was calculated relative to the “DMSO/with IFNγ” control and used to determine the IC50.

[2] = Pharmacokinetic (PK) study in mice, oral bioavailability; type: in vivo, Male CD-1 mice; conditions: 10 mg/kg PO vs 2 mg/kg IV, 10% Ethanol, 30% PEG-400, 60% Phosal-50PG
Method: Pharmacokinetic (PK) study in mice: Male CD-1 mice obtained from Charles River GmbH (Sulzfeld, Germany) with body weight ranging between 30 g to 40 g were used in the PK studies. Group of 12 mice were given a 2 mg/kg intravenous bolus (IV) dose of test article as a solution in 20% HP-beta-CD, and another group of 9 mice were given a 10 mg/kg oral (PO) dose of test article as a solution or suspension in [10% ethanol, 30% PEG-400 and 60% Phosal-50PG]. Blood samples (˜200 μL per time point) were collected twice from each animal—from orbital sinus and by cardiopuncture at 0.083, 0.25, 0.5, 1, 2, 4, 8 and 24 hours after IV administration, and at 0.5, 1, 2, 4, 8 and 24 hours after PO administration, 3 mice/time point. Blood samples were collected in tubes with Na-EDTA 0.5 M solution (1:10) and centrifuged for 10 min at 10,000 rpm at 2 to 8° C. to harvest plasma. Plasma samples were stored at −80° C. until LC/MS/MS analysis. Concentration in each plasma sample was determined by a non-validated LC/MS/MS. Data is acquired using multiple reaction monitoring (MRM) with specific transitions monitored for each compound. Pharmacokinetic Analysis: PK parameters were calculated by non-compartmental methods as described in Gibaldi and Perrier (Gibaldi and Perrier, 1982) using Phoenix® WinNonlin® version 6.3 (Certara L.P.). Following PO administration, percent bioavailability (Fabs) was determined by dividing the dose normalized mean area under the plasma concentration-time curve, extrapolated to the last time point (AUClast) obtained following PO dose by the mean dose normalized AUC of the animals dosed by IV injection. All PK parameters are presented as mean±standard deviation (SD). PK studies were conducted in mice for exemplary compounds of Formula (I). The percent bioavailability (Fabs) values determined are listed in Table C for certain compounds, together with the dosage, vehicle and form used in the studies.

[3] = B16F10, no IFNγ, 3 days of incubation, read-out: IC50 no IFNγ
[4] = B16F10, with IFNγ, 3 days of incubation, read-out: IC50 + IFNγ
[5] = B16-F10, B16F10, 100 μM compound, no IFNγ, read-out: % Growth Inhibition at 100 μM no IFNγ
[6] = B16-F10, B16F10, 100 μM compound, with IFNγ, read-out: % Growth Inhibition at 100 μM + IFNγ

Sequence of GST-tagged PTPN2 protein (P17706 whole entry): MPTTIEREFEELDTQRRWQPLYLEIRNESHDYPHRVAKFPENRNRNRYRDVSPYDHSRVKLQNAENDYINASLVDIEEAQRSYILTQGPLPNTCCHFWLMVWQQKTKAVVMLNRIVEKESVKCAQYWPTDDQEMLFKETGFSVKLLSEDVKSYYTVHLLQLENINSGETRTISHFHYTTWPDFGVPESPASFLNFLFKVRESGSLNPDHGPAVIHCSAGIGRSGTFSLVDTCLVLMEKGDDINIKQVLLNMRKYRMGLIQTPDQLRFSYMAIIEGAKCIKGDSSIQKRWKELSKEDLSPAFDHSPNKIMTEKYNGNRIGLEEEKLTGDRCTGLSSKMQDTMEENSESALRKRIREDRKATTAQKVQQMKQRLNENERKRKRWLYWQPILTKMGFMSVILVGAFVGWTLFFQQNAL

SMILES	Ki (GST-tagged PTPN2 protein) [µM]	IC50 [1, 3] [µM]	IC50 [1, 4] [µM]	inhibition at 100 µM [1, 5] [%]	inhibition at 100 µM [1, 6] [%]	Fabs, % ([2]; form Solution) [%]	Fabs, % ([2]; form Suspension) [%]	IC50 ([1]; read-out: IC50 + IFNγ (μM)) [µM]	IC50 ([1]; read-out: IC50 no IFNγ (μM)) [µM]	inhibition at 100 µM ([1]; B16-F10, read-out: % Growth Inhibition at 100 μM + IFNγ) [%]	inhibition at 100 µM ([1]; B16-F10, read-out: % Growth Inhibition at 100 μM no IFNγ) [%]
COc1cc(O)nc(Nc2cc(O)c(N3CC(=O)NS3(=O)=O)c(F)c2)n1 [Compound 9, 5-[2-fluoro-6-hydroxy-4-[(4-hydroxy-6-methoxy-pyrimidin-2-yl)amino]phenyl]-1,1-dioxo-1,2,5-thiadiazolidin-3-one]	< 0.001	> 100	5 to 10	10 to 50	75 to 100	10.4	–	–	–	–	–
CC(C)Cc1c(O)nc(Nc2cc(O)c(N3CC(=O)NS3(=O)=O)c(F)c2)nc1O [Compound 13, 5-[4-[(4,6-dihydroxy-5-isobutyl-pyrimidin-2-yl)amino]-2-fluoro-6-hydroxy-phenyl]-1,1-dioxo-1,2,5-thiadiazolidin-3-one]	0.001 to 0.005	> 100	10 to 50	10 to 50	50 to 75	–	–	–	–	–	–
CC(C)Cc1c(O)nc(Nc2cc(O)c(N3CC(=O)NS3(=O)=O)c(F)c2)nc1Cl [Compound 42, 5-[4-[(4-chloro-6-hydroxy-5-isobutyl-pyrimidin-2-yl)amino]-2-fluoro-6-hydroxy-phenyl]-1,1-dioxo-1,2,5-thiadiazolidin-3-one]	< 0.001	> 100	10 to 50	10 to 50	75 to 100	–	–	–	–	–	–
O=C1CN(c2c(O)cc(Nc3ncc(Cl)cn3)cc2F)S(=O)(=O)N1 [Compound 5, 5-[4-[(5-chloropyrimidin-2-yl)amino]-2-fluoro-6-hydroxy-phenyl]-1,1-dioxo-1,2,5-thiadiazolidin-3-one]	0.05 to 0.1	> 100	> 100	10 to 50	10 to 50	–	–	–	–	–	–
O=C1CN(c2c(O)cc(NC3=NCCCN3)cc2F)S(=O)(=O)N1 [Compound 2, 5-[2-fluoro-6-hydroxy-4-(1,4,5,6-tetrahydropyrimidin-2-ylamino)phenyl]-1,1-dioxo-1,2,5-thiadiazolidin-3-one]	0.005 to 0.01	> 100	< 5	10 to 50	75 to 100	–	–	–	–	–	–
Cc1cnc(Nc2cc(O)c(N3CC(=O)NS3(=O)=O)c(F)c2)nc1O [Compound 6, 5-[2-fluoro-6-hydroxy-4-[(4-hydroxy-5-methyl-pyrimidin-2-yl)amino]phenyl]-1,1-dioxo-1,2,5-thiadiazolidin-3-one]	< 0.001	> 100	50 to 100	< 10	50 to 75	–	–	–	–	–	–
O=C1CN(c2c(O)cc(Nc3nccc(O)n3)cc2F)S(=O)(=O)N1 [Compound 7, 5-[2-fluoro-6-hydroxy-4-[(4-hydroxypyrimidin-2-yl)amino]phenyl]-1,1-dioxo-1,2,5-thiadiazolidin-3-one]	0.001 to 0.005	> 100	5 to 10	10 to 50	75 to 100	–	6.1	–	–	–	–
CC1CCN=C(Nc2cc(O)c(N3CC(=O)NS3(=O)=O)c(F)c2)N1 (centres unmarked) [Compound 3, 5-[2-fluoro-6-hydroxy-4-[(6-methyl-1,4,5,6-tetrahydropyrimidin-2-yl)amino]phenyl]-1,1-dioxo-1,2,5-thiadiazolidin-3-one]	0.01 to 0.05	10 to 50	5 to 10	10 to 50	50 to 75	12.5	–	–	–	–	–
O=C1CN(c2c(O)cc(Nc3nc(O)c4c(n3)CCCC4)cc2F)S(=O)(=O)N1 [Compound 39, 5-[2-fluoro-6-hydroxy-4-[(4-hydroxy-5,6,7,8-tetrahydroquinazolin-2-yl)amino]phenyl]-1,1-dioxo-1,2,5-thiadiazolidin-3-one]	< 0.001	> 100	10 to 50	10 to 50	50 to 75	–	–	–	–	–	–
O=C1CN(c2c(O)cc(Nc3nc(O)c4ccccc4n3)cc2F)S(=O)(=O)N1 [Compound 8, 5-[2-fluoro-6-hydroxy-4-[(4-hydroxyquinazolin-2-yl)amino]phenyl]-1,1-dioxo-1,2,5-thiadiazolidin-3-one]	< 0.001	> 100	10 to 50	10 to 50	50 to 75	–	–	–	–	–	–
CCCc1c(C)nc(Nc2cc(O)c(N3CC(=O)NS3(=O)=O)c(F)c2)nc1O [Compound 21, 5-[2-fluoro-6-hydroxy-4-[(4-hydroxy-6-methyl-5-propyl-pyrimidin-2-yl)amino]phenyl]-1,1-dioxo-1,2,5-thiadiazolidin-3-one]	0.001 to 0.005	> 100	10 to 50	10 to 50	50 to 75	–	–	–	–	–	–
CC(C)Cc1cnc(Nc2cc(O)c(N3CC(=O)NS3(=O)=O)c(F)c2)nc1O [Compound 12, 5-[2-fluoro-6-hydroxy-4-[(4-hydroxy-5-isobutyl-pyrimidin-2-yl)amino]phenyl]-1,1-dioxo-1,2,5-thiadiazolidin-3-one]	< 0.001	> 100	10 to 50	10 to 50	50 to 75	–	–	–	–	–	–
Cc1ccnc(Nc2cc(O)c(N3CC(=O)NS3(=O)=O)c(F)c2)n1 [Compound 4, 5-[2-fluoro-6-hydroxy-4-[(4-methylpyrimidin-2-yl)amino]phenyl]-1,1-dioxo-1,2,5-thiadiazolidin-3-one]	≥ 0.1	–	–	–	–	–	–	> 100	> 100	10 to 50	10 to 50
